Measurements published in US20070213305A1, “N-alkyl-N-aryl-thienopyrimidin-4-amines and analogs as activators of caspases and inducers of apoptosis and the use thereof” (Cytovia, Inc., priority 2005, published 2007).
Structures can show the parent of a compound that is named as a salt. Where two headings read alike, the source gives them in different places.

Experiments:
[1] = test system: human hepatocellular carcinoma cell line SNU398; assay: Caspase cascade activation (DEVD-R110 fluorogenic substrate) in SNU398 cells; format: cell-based; details: SNU398, 24 h, read-out: Caspase Activation Potency EC50 (nM) (24 h) SNU398
Experimental: (§1) Human breast cancer cell line T-47D, human lung cancer cell line H1299 and human hepatocellular carcinoma cell line SNU398 were grown according to media component mixtures designated by American Type Culture Collection+10% FCS (Invitrogen Corporation), in a 5% CO2-95% humidity incubator at 37° C. T-47D and H1299 cells were maintained at a cell density between 50 and 80% confluency at a cell density of 0.1 to 0.6×10^6 cells/mL. Cells were harvested at 600×g and resuspended at 0.65×10^6 cells/mL into appropriate media+10% FCS. An aliquot of 22.5 μL of cells was added to a well of a 384-well microtiter plate containing 2.5 μL of a 10% DMSO in RPMI-1640 media solution containing 0.16 to 100 μM of N-(4-methoxyphenyl)-N, 2-dimethylthieno[3,2-d]pyrimidin-4-amine or other test compound (0.016 to 10 μM final). An aliquot of 22.5 μL of cells was added to a well of a 384-well microtiter plate containing 2.5 μL of a 10 % DMSO in RPMI-1640 media solution without test compound as the control sample. The samples were mixed by agitation and then incubated at 37° C. for 24 h or 48 h in a 5% CO2-95% humidity incubator. After incubation, the samples were removed from the incubator and 25 μL of a solution containing 14 μM of N-(Ac-DEVD)-N′-ethoxycarbonyl-R110 (SEQ ID No.:1) fluorogenic substrate (Cytovia, Inc.; WO99/18856), 20% sucrose (Sigma), 20 mM DTT (Sigma), 200 mM NaCI (Sigma), 40 mM Na PIPES buffer pH 7.2 (Sigma), and 500 μg/mL lysolecithin (Calbiochem) was added. The samples were mixed by agitation and incubated at room temperature. Using a fluorescent plate reader (Model SPECTRAfluor Plus, Tecan), an initial reading (T=0) was made approximately 1-2 min after addition of the substrate solution, employing excitation at 485 nm and emission at 530 nm, to determine the background fluorescence of the control sample. After the 3 h incubation, the samples were read for fluorescence as above (T=3 h).
(§2) The Relative Fluorescence Unit values (RFU) were used to calculate the sample readings as follows: RFU(T=3h)-Control RFU(T=0)=Net RFU(T=3h)
(§3) The activity of caspase cascade activation was determined by the ratio of the net RFU value for N-(4-methoxyphenyl)-N,2-dimethylthieno[3,2-d]pyrimidin-4-amine or other test compound to that of control samples. The EC50 (nM) was determined by a sigmoidal dose-response calculation (Prism 3.0, GraphPad Software Inc.).
Several compounds were also tested in other cancer cells lines (48 h assay), including human hepatocellular carcinoma cell line SNU398, human colon carcinoma cell line […], human B cell lymphoblastoid cell line Ramos, human Burkitt's lymphoma cell line Namalwa, and cervical cancer cell line HeLa, and the data are summarized in Table II.

[2] = test system: human lung cancer cell line H1299; assay: Caspase cascade activation (DEVD-R110 fluorogenic substrate) in H1299 cells; format: cell-based; details: read-out: Caspase Activation Potency EC50 (nM) (24 h) H1299
Experimental: as §1, §2, §3

[3] = test system: human breast cancer cell line T-47D; assay: Caspase cascade activation (DEVD-R110 fluorogenic substrate) in T-47D cells; format: cell-based; details: 24 h, read-out: Caspase Activation Potency EC50 (nM) (24 h) T-47D
Experimental: as §1, §2, §3

[4] = test system: H1299 cells; assay: Inhibition of cell proliferation (GI50, CellTiter-Glo) in H1299 cells; format: cell-based, human; details: Homo sapiens, NCI-H1299; H1299, 48 h incubation; read-out: GI50 in Cancer Cells GI50 (nM) H1299
Experimental: (§4) T-47D, HT29, H1299, MX-1 and MDAMB435 cells were grown and harvested as in Example 29. An aliquot of 90 μL of cells (4.4×10^4 cells/mL) was added to a well of a 96-well microtiter plate containing 5 μL of a 10% DMSO in RPMI-1640 media solution containing 10 nM to 100 μM of N-(4-methoxyphenyl)-N,2-dimethylthieno[2,3-d]pyrimidin-4-amine (1 nM to 10 μM final) or related compounds. An aliquot of […] of cells was added to a well of a 96-well microtiter plate containing 5 μL of a 10% DMSO in RPMI-1640 media solution without compound as the control sample for maximal cell proliferation (LMax). The samples were mixed by agitation and then incubated at 37° C. for 48 h in a 5% CO2-95% humidity incubator. After incubation, the samples were removed from the incubator and 25 μL of CellTiter-Glo™ reagent (Promega) was added. The samples were mixed by agitation and incubated at room temperature for 10-15 min. Plates were then read using a luminescent plate reader (Model SPECTRAfluor Plus, Tecan) to give Ltest values.
(§5) The samples were mixed by agitation and then incubated at 37° C. for 0.5 h in a 5% CO2-95% humidity incubator. After incubation, the samples were removed from the incubator and 25 μL of CellTiter-Glo™ reagent (Promega) was added. The samples were mixed by agitation and incubated at […] room temperature in a 5% CO2-95% humidity incubator. […] was read as above, (Lstart) defining luminescence for initial cell number used as baseline in GI50 determinations. ps Calculation:
(§6) GI50 (dose for 50% inhibition of cell proliferation) is the concentration where [(LTest-LStart)/(LMax-LStart)]=0.5.

[5] = test system: T-47D cells; assay: Inhibition of cell proliferation (GI50, CellTiter-Glo) in T-47D cells; format: cell-based, human; details: Homo sapiens; T47D, 48 h incubation; read-out: GI50 in Cancer Cells GI50 (nM) T47D
Experimental: as §4, §5, §6

[6] = test system: MDAMB435 cells; assay: Inhibition of cell proliferation (GI50, CellTiter-Glo) in MDAMB435 cells; format: cell-based; details: Homo sapiens, MDA-MB-435; MDAMB435, 48 h incubation; read-out: GI50 in Cancer Cells GI50 (nM) MDAMB435
Experimental: as §4, §5, §6

[7] = test system: HT29 cells; assay: Inhibition of cell proliferation (GI50, CellTiter-Glo) in HT29 cells; format: cell-based; details: Homo sapiens, HT-29; HT29, 48 h incubation; read-out: GI50 in Cancer Cells GI50 (nM) HT29
Experimental: as §4, §5, §6

[8] = test system: MX-1 cells; assay: Inhibition of cell proliferation (GI50, CellTiter-Glo) in MX-1 cells; format: cell-based; details: Homo sapiens; MX1, 48 h incubation; read-out: GI50 in Cancer Cells GI50 (nM) MX1
Experimental: as §4, §5, §6

## COc1ccc(N(C)c2nc(SC)nc3ccsc23)cc1 [Example 20, N-(4-Methoxyphenyl)-N-methyl-2-(methylthio)thieno[3,2-d]pyrimidin-4-amine hydrochloride]
[1]; Homo sapiens, SNU-398
  EC50: 81 nM
[2]; Homo sapiens, NCI-H1299, 24 h
  EC50: 28 nM
[3]; Homo sapiens, T47D
  EC50: 36 nM

## COc1ccc(Nc2nc(C)nc3scc(C)c23)cc1 [Example 13, N-(4-Methoxyphenyl)-2,5-dimethylthieno[2,3-d]pyrimidin-4-amine hydrochloride]
[2]; Homo sapiens, NCI-H1299, 24 h
  EC50: > 10000 nM
[3]; Homo sapiens, T47D
  EC50: > 10000 nM

## COc1ccc(N(C)c2ncnc3sc(C)cc23)cc1 [Example 18, N-(4-Methoxy-phenyl)-N,6-dimethylthieno[2,3-d]pyrimidin-4-amine hydrochloride]
[2]; Homo sapiens, NCI-H1299, 24 h
  EC50: 184 nM
[3]; Homo sapiens, T47D
  EC50: 125 nM

## COc1ccc(OC)c(N(C)c2ncnc3ccsc23)c1 [Example 21, N-(2,5 -Dimethoxyphenyl)-N-methylthieno[3,2-d]pyrimidin-4-amin]
[2]; Homo sapiens, NCI-H1299, 24 h
  EC50: 4940 nM
[3]; Homo sapiens, T47D
  EC50: 2500 nM

## COc1ccc(N(C)c2ncnc3c(C)csc23)cc1 [Example 10, N-(4-Methoxyphenyl)-N,7-dimethylthieno[3,2-d]pyrimidin-4-amine]
[2]; Homo sapiens, NCI-H1299, 24 h
  EC50: 525 nM
[3]; Homo sapiens, T47D
  EC50: 518 nM

## COc1ccc(N(C)c2ncnc3scc(C)c23)cc1 [Example 12, N-(4-Methoxyphenyl)-N,5-dimethylthieno[2,3-d]pyrimidin-4-amine]
[1]; Homo sapiens, SNU-398
  EC50: 15 nM
[2]; Homo sapiens, NCI-H1299, 24 h
  EC50: 19 nM
[3]; Homo sapiens, T47D
  EC50: 12 nM

## COc1ccc(OC)c(N(C)c2nc(C)nc3ccsc23)c1 [Example 16, N-(2,5-Dimethoxyphenyl)-N,2-dimethylthieno[3,2-d]pyrimidin-4-amine]
[2]; Homo sapiens, NCI-H1299, 24 h
  EC50: > 10000 nM
[3]; Homo sapiens, T47D
  EC50: > 10000 nM

## COc1cc(OC)cc(N(C)c2ncnc3ccsc23)c1 [Example 28, N-(3,5-dimethoxyphenyl)-N-methylthieno[3,2-d]pyrimidin-4-amine]
[2]; Homo sapiens, NCI-H1299, 24 h
  EC50: > 10000 nM
[3]; Homo sapiens, T47D
  EC50: > 10000 nM

## COc1cccc(N(C)c2ncnc3ccsc23)c1 [Example 27, N-(3-methoxyphenyl)-N-methylthieno[3,2-d]pyrimidin-4-amine]
[2]; Homo sapiens, NCI-H1299, 24 h
  EC50: > 10000 nM
[3]; Homo sapiens, T47D
  EC50: > 10000 nM

## COc1ccc(N(C)c2ncnc3sc(C)c(C)c23)cc1 [Example 23, N-(4-Methoxyphenyl)-N,5,6-trimethylthieno[2,3-d]pyrimidin-4-amine]
[1]; Homo sapiens, SNU-398
  EC50: 30 nM
[2]; Homo sapiens, NCI-H1299, 24 h
  EC50: 51 nM
[3]; Homo sapiens, T47D
  EC50: 19 nM

## COc1ccc(N(C)c2ncnc3sccc23)cc1 [Example 9, N-(4-Methoxyphenyl)-N-methylthieno[2,3-d]pynimidin-4-amine]
[1]
  EC50: 57 nM
[2]; H1299, 24 h
  EC50: 41 nM
[3]
  EC50: 19 nM

## COc1ccc(N(C)c2nc(C)nc3c(C)csc23)cc1 [Example 3, N-(4-Methoxyphenyl)-N,2,7-trimethylthieno[3,2-d]pyrimidin-4-amine]
[2]; Homo sapiens, NCI-H1299, 24 h
  EC50: 281 nM
[3]; Homo sapiens, T47D
  EC50: 233 nM

## COc1ccc(N(C)c2nc(C)nc3sccc23)cc1 [Example 2, N-(4-Methoxyphenyl)-N,2-dimethylthieno[2,3-d]pyrimidin-4-amine]
[4]
  GI50: 9 nM
[5]
  GI50: 5 nM
[6]
  GI50: 2 nM
[7]
  GI50: 26 nM
[2]; H1299, 24 h
  EC50: 15 nM
[8]
  GI50: 5 nM
[3]
  EC50: 9 nM

## COc1ccc(Nc2ncnc3ccsc23)cc1 [Example 14, N-(4-Methoxyphenyl)-thieno[3,2-d]pyrimidin-4-amine hydrochloride]
[2]; Homo sapiens, NCI-H1299, 24 h
  EC50: > 10000 nM
[3]; Homo sapiens, T47D
  EC50: > 10000 nM

## COc1ccccc1N(C)c1ncnc2ccsc12 [Example 25, N-(2-Methoxyphenyl)-N-methylthieno[3,2-d]pyrimidin-4-amine]
[2]; Homo sapiens, NCI-H1299, 24 h
  EC50: > 10000 nM
[3]; Homo sapiens, T47D
  EC50: > 10000 nM

## COC(=O)c1ccc(N(C)c2ncnc3ccsc23)cc1 [Example 22, N-(4-Methoxycarbonylphenyl)-N-methylthieno[3,2-d]pyrimidin-4-amine hydrochloride]
[2]; Homo sapiens, NCI-H1299, 24 h
  EC50: 327 nM
[3]; Homo sapiens, T47D
  EC50: 185 nM

## COc1ccc(N(C)c2ncnc3cc(I)sc23)cc1 [Example 7, 6-Iodo-N-(4-methoxyphenyl)-N-methylthieno[3,2-d]pyrimidin-4-amine]
[2]; Homo sapiens, NCI-H1299, 24 h
  EC50: > 10000 nM
[3]; Homo sapiens, T47D
  EC50: > 10000 nM

## COc1ccc(N(C)c2nc(-c3ccccc3)nc3ccsc23)cc1 [Example 19, N-(4-Methoxyphenyl)-N-methyl-2-phenylthieno[3,2-d]pyri idin-4-amine hydrochloride]
[2]; H1299, 24 h
  EC50: 615 nM
[3]
  EC50: 337 nM

## Cc1cc(N(C)c2ncnc3ccsc23)no1 [Example 17, N-Methyl-N-(5-methylisoxazol-3-yl)thieno[3,2-d]pyrimidin-4-amine]
[2]; Homo sapiens, NCI-H1299, 24 h
  EC50: > 10000 nM
[3]; Homo sapiens, T47D
  EC50: > 10000 nM

## COc1ccc(N(C)c2ncnc3ccsc23)cc1OC [Example 26, N-(3,4-Dimethoxyphenyl)-N-methylthieno[3,2-d]pyrimidin-4-amine]
[2]; Homo sapiens, NCI-H1299, 24 h
  EC50: 2620 nM
[3]; Homo sapiens, T47D
  EC50: 1630 nM

## COc1ccc(Nc2ncnc3scc(C)c23)cc1 [Example 11, N-(4-Methoxyphenyl)-5-methylthieno[2,3-d]pyrimidin-4-amine]
[2]; Homo sapiens, NCI-H1299, 24 h
  EC50: > 10000 nM
[3]; Homo sapiens, T47D
  EC50: > 10000 nM

## COc1ccc(N(C)c2ncnc3cc(-c4cccnc4)sc23)cc1 [Example 8, N-(4-Methoxyphenyl)-N-methyl-6-(pyridin-3-yl)thieno[3,2-d]pyrimidin-4-amine]
[2]; Homo sapiens, NCI-H1299, 24 h
  EC50: > 10000 nM
[3]; Homo sapiens, T47D
  EC50: > 10000 nM
